Results: publication PMC10095345, “The Role of Tyr-His-Trp Triad and Water Molecule Near the N1-Atom of 2-Hydroperoxycoelenterazine in Bioluminescence of Hydromedusan Photoproteins: Structural and Mutagenesis Study” (International Journal of Molecular Sciences, 2023)

Columns and labels:
obelin (OL_wt) = biological target: T1, obelin (OL_wt) (Obelia longissima, UniProt Q27709); test: Ca2+-triggered bioluminescence of charged photoprotein, luminometer; format: biochemical; details: 2 mM CaCl2, 50 mM Tris-HCl pH 8.5, 23 C; bound as 2-hydroperoxycoelenterazine
T1 construct: full-length apo-obelin from pET19-OL8 in E. coli BL21-Gold (DE3) Codon Plus (RIPL), charged with coelenterazine; 195 residues

aequorin (AV_wt) = biological target: T2, aequorin (AV_wt) (Aequorea victoria, UniProt P07164); test: as above; format: biochemical; details: 2 mM CaCl2, 50 mM Tris-HCl pH 8.5, 23 C; bound as 2-hydroperoxycoelenterazine
T2 construct: apo-aequorin with N-terminus truncated by six residues, from pET22-A7 in E. coli BL21-Gold (DE3) Codon Plus (RIPL), charged with coelenterazine
T2 sequence (P07164 7-196 limits assumed): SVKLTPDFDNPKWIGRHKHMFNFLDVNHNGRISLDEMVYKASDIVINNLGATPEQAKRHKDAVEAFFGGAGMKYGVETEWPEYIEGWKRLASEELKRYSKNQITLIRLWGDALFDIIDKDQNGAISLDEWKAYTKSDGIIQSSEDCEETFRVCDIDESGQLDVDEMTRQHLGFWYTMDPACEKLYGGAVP

T1 sequence (Q27709 whole entry): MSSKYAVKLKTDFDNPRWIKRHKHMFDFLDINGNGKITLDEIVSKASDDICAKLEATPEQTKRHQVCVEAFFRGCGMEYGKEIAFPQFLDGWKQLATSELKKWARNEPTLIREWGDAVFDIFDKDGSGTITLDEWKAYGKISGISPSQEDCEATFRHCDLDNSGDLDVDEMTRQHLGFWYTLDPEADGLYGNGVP

`Oc1ccc(Cc2nc3c(Cc4ccccc4)nc(-c4ccc(O)cc4)cn3c2O)cc1` [coelenterazine] was tested, and the “Ca2+-triggered bioluminescence of charged photoprotein, luminometer” value (obelin (OL_wt)) was “Obelin and aequorin as well as their mutants were purified and activated with coelenterazine” and the “Ca2+-triggered bioluminescence of charged photoprotein, luminometer” value (aequorin (AV_wt)) was “Obelin and aequorin as well as their mutants were purified and activated with coelenterazine”.
